Tests used:
[1] = tested on: SVFA; assay: Effect and selectivity in corn: herbicidal effect; assay type: in vivo
Experimental: (§1) Various crop plants are grown in plastic pots with a diameter of 9 cm in a glasshouse to the stated stage and then treated with the particular herbicide or with a mixture of the herbicide and the safener by the post-emergence method. This entails the herbicide of the formula (A) and the compounds of the formula (B) being applied in the form of aqueous suspensions or emulsions with a water application rate which converts to 300 l/ha. 4 weeks after the treatment, the plants are assessed visually for every type of damage by the applied herbicides, taking particular account of the extent of persistent growth inhibition. The evaluation takes place in percentages (scale from 0 to 100%) compared with untreated controls.

[2] = tested on: SOHA; assay: Effect and selectivity in corn: herbicidal effect; assay type: in vivo, Sorghum halepense; conditions: 3 leaves
Experimental: as §1

[3] = tested on: Corn; assay: Effect and selectivity in corn: phytotoxicity; assay type: in vivo; conditions: corn 4 leaves
Experimental: as §1

[4] = tested on: ECCG; assay: Effect and selectivity in corn: herbicidal effect; assay type: in vivo, Echinochloa crus-galli; conditions: start of tillering (4 to 5 leaves)
Experimental: as §1

[5] = tested on: POAN; assay: Herbicidal activity on grasses, post-emergence; assay type: in vivo, Poa annua; conditions: no safener, 4-leaf stage
Experimental: as §1

[6] = tested on: APSP; assay: Herbicidal activity on grasses, post-emergence; assay type: in vivo, Apera spica-venti; conditions: no safener, 4-leaf stage
Experimental: as §1

[7] = tested on: ALMY; assay: Herbicidal activity on grasses, post-emergence; assay type: in vivo, Alopecurus myosuroides; conditions: no safener, 4-leaf stage
Experimental: as §1

[8] = tested on: AVFA; assay: Herbicidal activity on grasses, post-emergence; assay type: in vivo, Avena fatua; conditions: no safener, 4-leaf stage
Experimental: as §1

[9] = tested on: Wheat; assay: Phytotoxicity of herbicide/safener combinations in cereals, glasshouse post-emergence; assay type: in vivo; conditions: no safener, 4 weeks after treatment
Experimental: as §1

[10] = tested on: Barley; assay: as above; assay type: in vivo; conditions: no safener, 4 weeks after treatment
Experimental: as §1

Compound	Phytotoxicity or herbicidal effect in % SOHA ([2]; dose 25 g AS/ha) [%]	Phytotoxicity or herbicidal effect in % SOHA ([2]; dose 50 g AS/ha) [%]	Phytotoxicity or herbicidal effect in % Corn ([3]; dose 25 g AS/ha) [%]	Phytotoxicity or herbicidal effect in % Corn ([3]; dose 50 g AS/ha) [%]	Phytotoxicity or herbicidal effect in % Corn ([3]; dose 100 g AS/ha) [%]	Phytotoxicity or herbicidal effect in % ECCG ([4]; dose 25 g AS/ha) [%]	Phytotoxicity or herbicidal effect in % ECCG ([4]; dose 50 g AS/ha) [%]	% effect on POAN ([5]; dose A 6 g AS/ha) [%]	% effect on POAN ([5]; dose A 12 g AS/ha) [%]	% effect on POAN ([5]; dose A 25 g AS/ha) [%]	% effect on APSP ([6]; dose A 6 g AS/ha) [%]	% effect on APSP ([6]; dose A 12 g AS/ha) [%]	% effect on APSP ([6]; dose A 25 g AS/ha) [%]	% effect on ALMY ([7]; dose A 6 g AS/ha) [%]	% effect on ALMY ([7]; dose A 12 g AS/ha) [%]	% effect on ALMY ([7]; dose A 25 g AS/ha) [%]	% effect on AVFA ([8]; dose A 6 g AS/ha) [%]	% effect on AVFA ([8]; dose A 12 g AS/ha) [%]	% effect on AVFA ([8]; dose A 25 g AS/ha) [%]	Phytotoxicity Wheat ([9]; dose A 6 g AS/ha) [%]	also measured
COC(=O)Nc1ccc(C(=O)N(C)C)c(S(=O)(=O)NC(=O)Nc2nc(OC)cc(OC)n2)c1.[Na] [A7, N-(4,6-Dimethoxypyrimidin-2-ylaminocarbonyl)-2-(N,N-dimethylaminocarbonyl)-5-(N-methoxycarbonylamino)benzenesulfonamide sodium salt]	90	90	25	40	60	60	80														Phytotoxicity or herbicidal effect in % SVFA ([1]; dose 25 g AS/ha): 100%; Phytotoxicity or herbicidal effect in % SVFA ([1]; dose 50 g AS/ha): 100%; Phytotoxicity or herbicidal effect in % SVFA ([1]; dose 100 g AS/ha): 100%; Phytotoxicity or herbicidal effect in % SOHA ([2]; dose 100 g AS/ha): 95%; Phytotoxicity or herbicidal effect in % ECCG ([4]; dose 100 g AS/ha): 90%
COc1cc(OC)nc(NC(=O)NS(=O)(=O)c2cc(NC=O)ccc2C(=O)N(C)C)n1 [A8, N-(4,6-Dimethoxypyrimidin-2-ylaminocarbonyl)-2-(N,N-dimethylaminocarbonyl)-5-(N-formylamino)benzenesulfonamide]																					Phytotoxicity or herbicidal effect in % SVFA ([1]; dose 25 + 12 g AS/ha): 95%; Phytotoxicity or herbicidal effect in % SVFA ([1]; dose 50 + 25 g AS/ha): 100%; Phytotoxicity or herbicidal effect in % SOHA ([2]; dose 25 + 12 g AS/ha): 95%; Phytotoxicity or herbicidal effect in % SOHA ([2]; dose 50 + 25 g AS/ha): 98%; Phytotoxicity or herbicidal effect in % ECCG ([4]; dose 25 + 12 g AS/ha): 98%; Phytotoxicity or herbicidal effect in % ECCG ([4]; dose 50 + 25 g AS/ha): 100%
CCC(=O)Nc1ccc(C(=O)N(C)C)c(S(=O)(=O)NC(=O)Nc2nc(OC)cc(OC)n2)c1.[Na] [A9, N-(4,6-Dimethoxypyrimidin-2-ylaminocarbonyl)-2-(N,N-dimethylaminocarbonyl)-5-(N-propionylamino)benzenesulfonamide sodium salt]	98	100	0	15	35	99	100														
COC(=O)c1ccc(CNS(C)(=O)=O)cc1S(=O)(=O)NC(=O)Nc1nc(OC)cc(OC)n1.[Na] [A10]								85	99	100	80	97	99	98	100	100	75	85	90	15	Phytotoxicity Wheat ([9]; dose A 12 g AS/ha): 25%; Phytotoxicity Wheat ([9]; dose A 25 g AS/ha): 30%; Phytotoxicity Barley ([10]; dose A 6 g AS/ha): 5%; Phytotoxicity Barley ([10]; dose A 12 g AS/ha): 15%; Phytotoxicity Barley ([10]; dose A 25 g AS/ha): 55%
COC(=O)NCc1ccc(C(=O)OC)c(S(=O)(=O)NC(=O)Nc2nc(OC)cc(OC)n2)c1.[Na] [A11]								90	100	100	85	95	100	95	98	100	70	90	95	5	Phytotoxicity Wheat ([9]; dose A 12 g AS/ha): 20%; Phytotoxicity Wheat ([9]; dose A 25 g AS/ha): 45%; Phytotoxicity Barley ([10]; dose A 6 g AS/ha): 10%; Phytotoxicity Barley ([10]; dose A 12 g AS/ha): 25%; Phytotoxicity Barley ([10]; dose A 25 g AS/ha): 45%
COC(=O)c1ccc(CN(C)S(C)(=O)=O)cc1S(=O)(=O)NC(=O)Nc1nc(OC)cc(OC)n1 [A12]								85	92	99	85	95	98	95	98	99	75	85	90	5	Phytotoxicity Wheat ([9]; dose A 12 g AS/ha): 10%; Phytotoxicity Wheat ([9]; dose A 25 g AS/ha): 10%; Phytotoxicity Barley ([10]; dose A 6 g AS/ha): 8%; Phytotoxicity Barley ([10]; dose A 12 g AS/ha): 15%; Phytotoxicity Barley ([10]; dose A 25 g AS/ha): 25%
COC(=O)Nc1ccc(C(=O)N(C)C)c(S(=O)(=O)NC(=O)Nc2nc(OC)cc(OC)n2)c1 [A13, N-(4,6-Dimethoxypyrimidin-2-ylaminocarbonyl)-2-(N,N-dimethylaminocarbonyl)-5-(N-methoxycarbonylamino)benzenesulfonamide]	90	97	10	20	30	99	100														Phytotoxicity or herbicidal effect in % SVFA ([1]; dose 25 g AS/ha): 90%; Phytotoxicity or herbicidal effect in % SVFA ([1]; dose 50 g AS/ha): 95%
